Columns and labels:
ABUTH [1] = assay: Post-emergence action against ABUTH; assay type: in vivo, Abutilon theophrasti; details: post-emergence, dosage 80 g/ha, visual assessment about 3 weeks after treatment vs untreated controls
How it was run: (§1)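 Post-emergence foliar spray on greenhouse plants at the one-leaf stage, using wettable-powder or emulsion-concentrate formulations in water (600 to […], plus 0.2% wetting agent). Damage scored by eye roughly 3 weeks later against untreated plants: 0% = like control, 100% = dead.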

SETVI [2] = assay: Pre-emergence action against SETVI; assay type: in vivo, Setaria viridis; details: pre-emergence, dosage 320 g/ha, scored visually after 3 weeks vs untreated controls
How it was run: (§2)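 Seeds sown in sandy loam in wood-fiber pots and covered with soil. Greenhouse growth; visual damage scored after 3 weeks versus untreated controls (100% = dead, 0% = like control).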

CYPES [3] = assay: Post-emergence action against CYPES; assay type: in vivo, Cyperus esculentus; details: post-emergence, dosage 80 g/ha, visual assessment about 3 weeks after treatment vs untreated controls
How it was run: as §1

VIOTR [4] = assay: Post-emergence action against VIOTR; assay type: in vivo, Viola tricolor; details: post-emergence, dosage 80 g/ha
How it was run: as §1

PHBPU [5] = assay: Post-emergence action against PHBPU; assay type: in vivo, Pharbitis purpurea; details: post-emergence, dosage 80 g/ha
How it was run: as §1

AMARE [6] = assay: Pre-emergence action against AMARE; assay type: in vivo, Amaranthus retroflexus; details: pre-emergence, dosage 320 g/ha, scored visually after 3 weeks vs untreated controls
How it was run: as §2

VERPE [7] = assay: Post-emergence action against VERPE; assay type: in vivo, Veronica persica; details: dosage 80 g/ha
How it was run: as §1

AMARE [8] = assay: Post-emergence action against AMARE; assay type: in vivo, Amaranthus retroflexus; details: post-emergence, dosage 80 g/ha, visual assessment about 3 weeks after treatment vs untreated controls
How it was run: as §1

ABUTH [9] = assay: Pre-emergence action against ABUTH; assay type: in vivo, Abutilon theophrasti; details: pre-emergence, dosage 320 g/ha, scored visually after 3 weeks vs untreated controls
How it was run: as §2

AVEFA [10] = assay: Post-emergence action against AVEFA; assay type: in vivo, Avena fatua; details: post-emergence, dosage 80 g/ha, visual assessment about 3 weeks after treatment vs untreated controls
Procedure: (§3) Seeds of monocotyledonous and dicotyledonous weed and crop plants are laid out in sandy loam soil in wood-fiber pots, covered with soil and cultivated in a greenhouse under good growth conditions. 2 to 3 weeks after sowing, the test plants are treated at the one-leaf stage. The compounds of the invention, formulated in the form of wettable powders (WP) or as emulsion concentrates (EC), are then sprayed onto the green parts of the plants in the form of an aqueous suspension or emulsion at a water application rate equating to […], with addition of 0.2% wetting agent. After the test plants have been left to stand in the greenhouse under optimal growth conditions for about 3 weeks, the action of the preparations is assessed visually in comparison to untreated controls (herbicidal action in percent (%): 100% activity=the plants have died, 0% activity=like control plants). […] At the same time, inventive compounds leave Gramineae crops such as barley, wheat, rye, millet/Sorghum, corn or rice virtually undamaged when applied post-emergence, even at high active ingredient dosages. In addition, some substances are also harmless to dicotyledonous crops such as soya, cotton, oilseed rape, sugar beet or potatoes. Some of the compounds according to the invention have high selectivity and are therefore suitable for controlling unwanted vegetation in agricultural crops by the post-emergence method. The data of Tables B18 to B34 below illustrate, in an exemplary manner, the […] herbicidal action of the compounds according to the invention, the herbicidal activity being stated in percent.

SETVI [11] = assay: Post-emergence action against SETVI; assay type: in vivo, Setaria viridis; details: post-emergence, dosage 80 g/ha, visual assessment about 3 weeks after treatment vs untreated controls
How it was run: as §1

MATIN [12] = assay: Pre-emergence action against MATIN; assay type: in vivo, Matricaria inodora; details: Dosage 320 g/ha, pre-emergence
How it was run: as §2

VIOTR [13] = assay: Pre-emergence action against VIOTR; assay type: in vivo, Viola tricolor; details: Dosage 320 g/ha, pre-emergence
How it was run: as §2

STEME [14] = assay: Post-emergence action against STEME; assay type: in vivo, Stellaria media; details: post-emergence, dosage 80 g/ha
How it was run: as §1

ECHCG [15] = assay: Post-emergence action against ECHCG; assay type: in vivo, Echinochloa crus-galli; details: post-emergence, dosage 80 g/ha, visual assessment about 3 weeks after treatment vs untreated controls
How it was run: as §1

AVEFA [16] = assay: Pre-emergence action against AVEFA; assay type: in vivo, Avena fatua; details: dosage 320 g/ha, scored visually after 3 weeks vs untreated controls
How it was run: as §2

POLCO [17] = assay: Pre-emergence action against POLCO; assay type: in vivo, Polygonum convolvulus; details: Dosage 320 g/ha, pre-emergence
How it was run: as §2

ECHCG [18] = assay: Pre-emergence action against ECHCG; assay type: in vivo, Echinochloa crus-galli; details: pre-emergence, dosage 320 g/ha, scored visually after 3 weeks vs untreated controls
How it was run: as §2

MATIN [19] = assay: Post-emergence action against MATIN; assay type: in vivo, Matricaria inodora; details: post-emergence, dosage 80 g/ha, visual assessment about 3 weeks after treatment vs untreated controls
How it was run: as §1

PHBPU [20] = assay: Pre-emergence action against PHBPU; assay type: in vivo, Pharbitis purpurea; details: Dosage 320 g/ha, pre-emergence
How it was run: as §2

CYPES [21] = assay: Pre-emergence action against CYPES; assay type: in vivo, Cyperus esculentus; details: pre-emergence, dosage 320 g/ha, scored visually after 3 weeks vs untreated controls
How it was run: as §2

VERPE [22] = assay: Pre-emergence action against VERPE; assay type: in vivo, Veronica persica; details: Dosage 320 g/ha, pre-emergence
How it was run: as §2

POLCO [23] = assay: Post-emergence action against POLCO; assay type: in vivo, Polygonum convolvulus; details: post-emergence, dosage 80 g/ha
Procedure: as §3

ALOMY = assay: Pre-emergence action against ALOMY; assay type: in vivo, Alopecurus myosuroides; details: dosage 320 g/ha; pre-emergence; scored visually after 3 weeks vs untreated controls; 100% = plants have died, 0% = like control plants
How it was run: as §2

STEME [24] = assay: Pre-emergence action against STEME; assay type: in vivo, Stellaria media; details: Dosage 320 g/ha, pre-emergence
How it was run: as §2

| Structure (SMILES) | Post-emergence action against ABUTH (herbicidal action in percent) (ABUTH [1]) [%] | SETVI (Table B8, pre-emergence herbicidal activity) (SETVI [2]) [%] | Post-emergence action against CYPES (herbicidal action in percent) (CYPES [3]) [%] | Post-emergence action against VIOTR (VIOTR [4]) | Post-emergence action against PHBPU (PHBPU [5]) | Pre-emergence action against AMARE (herbicidal activity) (AMARE [6]) [%] | Post-emergence action against VERPE (VERPE [7]) | Pre-emergence action against ABUTH (herbicidal activity) (ABUTH [9]) [%] | Post-emergence action against SETVI (herbicidal action in percent) (SETVI [11]) [%] | Pre-emergence action against MATIN (MATIN [12]) [%] | Pre-emergence action against VIOTR (VIOTR [13]) [%] | Post-emergence action against STEME (STEME [14]) | Post-emergence action against ECHCG (herbicidal action in percent) (ECHCG [15]) [%] | Pre-emergence action against AVEFA (herbicidal activity) (AVEFA [16]) [%] | Pre-emergence action against POLCO (POLCO [17]) [%] | Pre-emergence action against ECHCG (herbicidal activity) (ECHCG [18]) [%] | Post-emergence action against MATIN (herbicidal action in percent) (MATIN [19]) [%] | Pre-emergence action against PHBPU (PHBPU [20]) [%] | Pre-emergence action against CYPES (herbicidal activity) (CYPES [21]) [%] | Pre-emergence action against VERPE (VERPE [22]) [%] | also measured |
| --- | --- | --- | --- | --- | --- | --- | --- | --- | --- | --- | --- | --- | --- | --- | --- | --- | --- | --- | --- | --- | --- |
| CCCn1nnnc1NC(=O)c1ccc(S(C)(=O)=O)c(C(=O)C2CC2)c1C [3-9] | 80 | 100 | 80 | 100 | 100 | 100 | 100 | 100 | 100 | 90 | 100 | 100 | 100 | 90 | 80 | 100 | 100 | – | – | – | Post-emergence action against AMARE (herbicidal action in percent) (AMARE [8]): 100%; Post-emergence action against AVEFA (herbicidal action in percent) (AVEFA [10]): 100% |
| CCCn1nnnc1NC(=O)c1ccc(C(F)(F)F)c(C(C)=O)c1OC [3-48] | 100 | 100 | 90 | 100 | 100 | 100 | 80 | 100 | 80 | 100 | 100 | 100 | 90 | – | 80 | 100 | 100 | 80 | 90 | 90 | Post-emergence action against POLCO (POLCO [23]): 80; Pre-emergence action against ALOMY (herbicidal activity in percent) (ALOMY): 90%; Pre-emergence action against STEME (STEME [24]): 90% |
| CCCn1nnnc1NC(=O)c1ccc(C(F)(F)F)c(C(C)=O)c1Br [3-195] | – | 100 | 80 | 90 | 90 | 100 | – | 100 | 90 | 100 | 100 | 90 | 90 | 90 | – | 100 | 90 | 90 | 90 | 100 | Post-emergence action against POLCO (POLCO [23]): 90; Pre-emergence action against ALOMY (herbicidal activity in percent) (ALOMY): 80%; Pre-emergence action against STEME (STEME [24]): 90% |
